Results taken from patent US5217990A, “Use of macrolactones as anti-allergics” (Boehringer Mannheim GmbH, priority 1989, dated 1993).
Read-outs that look alike come from different tables or passages of the source.

Tests used:
[1] = system: peripheral human leukocytes; assay: Inhibition of anti-IgE-induced histamine liberation from peripheral human leukocytes; type: cell-based
Source text: (§1) For the detection of the anti-allergic action, there was used the inhibition of the proteinase liberation from peripheral human leukocytes induced by anti-IgE antibodies (Wilhelmset et al. XII Congress Europ. Acad. Allergology Clin. Immunology, Rome, Sep. 25--3), 1983, as well as DE-Al-34 46 714) or of the histamine liberation in an analogous process according to a further development of the method of R. P. Siraganian and W. A. Hook (Manual of Clinical Immunology, 2nd edition, 1980, pub. N. R. Rose and H. Friedman, Am. Soc. for Microbiology, pages 808 to 821).
(§2) Description of the Test System for the Testing for Mediator Liberation Inhibition from Human Leukocytes in Vitro
(§3) The liberation of proteinase on isolated human leukocytes is initiated by stimulation with anti-IgE antibodies (IgE-mediated mediator liberation from basophilic granulocytes). The intensity of this liberation reaction is determined by substrate addition (chromozyme TH) and photometric measurement in that the colour intensity of the samples±inhibitor addition are compared.
(§4) Buffy-coat cells=concentrated cell suspension from blood preserve.
(§5) In the following Table I are reproduced the inhibition values of the anti-IgE-induced liberation of histamine and proteinase from peripheral human leukocytes. As comparison substance, there was used the known degranulation inhibitor theophylline.

[2] = system: guinea pig lung parenchyma strips; assay: Inhibition of the antigen-caused constriction of passively sensitised guinea pig lung parenchyma strips in vitro (organ bath); parameters: key to R = relaxation: R: relaxation; details: for inhibition at 10 µg/mL / inhibition at 40 µg/mL: Cavia porcellus
Method: As further detection for the anti-allergic action, there was investigated the inhibition of the antigen-caused constriction of passive sensitised guinea pig lung parenchyma strips in vitro.
Inhibition of the Antigen-Caused Construction of Passively Sensitised Guinea Pig Lung Parenchyma Strips in Vitro (Organ Bath)
For the in vitro investigation of the compounds according to the invention, there was measured the inhibition of the antigen-caused constriction on passively sensitised guinea pig lung parenchyma strips, as described in the following.
Pirbright white guinea pigs were stunned by neck blow and exsanguinated. The lungs were rinsed in situ substantially free of blood with Krebs buffer, pH 7.4.
Subsequently, the lung was removed, cut up into strips (about 20×4×4 mm) and the strips passively sensitised for 1 hour at room temperature with a 1:50 dilution of a homologous anti-ovalbumin antiserum and then washed with Krebs buffer 1×.
The antiserum had been previously produced in guinea pigs of the same strain according to Davies G. E., T. P. Johnstone (Quantitative studies on anaphylaxis in guinea pigs passively sensitised with homologous antibody; Inter. Arch. 41, 648-654 (1971)) by repeated injection of ovalbumin (2×crystallised) with the addition of complete Freund's adjuvant.
Up to its use, the antiserum was stored undiluted at -18° C.
Subsequently, the lung strips were suspended individually in 10 ml. waterbaths with a prestressing of 1.2 g on an isometric measurement recorder.
Thereafter, the waterbaths were filled with Krebs buffer and continuously gassed at 37° C. with O2 (95%) and CO2 (5%).
The constructions of the lung strips were recorded on a disc via an amplifier.
After 30 minutes acclimatisation phase, histamine control spasms were produced for the recognition of the reaction ability of the organ pieces, washed, subsequently the test substance pre-incubated for 20 minutes at 37° C. and thereafter the ovalbumin-caused constriction initiated.
The inhibition actions of the compounds according to the invention were expressed as percentage reduction of the constriction amplitude of the "samples with test substance" in comparison with the "untreated control constrictions".

[3] = system: peripheral human leukocytes; assay: Inhibition of anti-IgE-induced proteinase liberation from peripheral human leukocytes; type: cell-based
Source text: as §1, §2, §3, §4, §5

plant growth = details: cited from earlier work
[4] = system: lettuce seeds (Lactuca sativa); details: cited from earlier work
[5] = Homo sapiens, Leukocyte, conc. 2 μg/ml
[6] = Homo sapiens, Leukocyte, conc. 10 μg/ml
[7] = substance 10.00 mcg/ml, A = histamine 1.0 mcg/ml, read-out: Inhibition of constriction (percentage reduction of the constriction amplitude), spasmogen A
[8] = substance 10.00 mcg/ml, B = ovalbumin 0.1 mcg/ml, read-out: Inhibition of constriction (percentage reduction of the constriction amplitude), spasmogen B
[9] = substance 10.00 mcg/ml, C = glucose 1.16 %, read-out: Inhibition of constriction (percentage reduction of the constriction amplitude), spasmogen C
[10] = substance 10.00 mcg/ml, D = ovalbumin 1.0 mcg/ml, read-out: Inhibition of constriction (percentage reduction of the constriction amplitude), spasmogen D
[11] = substance 40.00 mcg/ml, A = histamine 1.0 mcg/ml, read-out: Inhibition of constriction (percentage reduction of the constriction amplitude), spasmogen A
[12] = substance 40.00 mcg/ml, B = ovalbumin 0.1 mcg/ml, read-out: Inhibition of constriction (percentage reduction of the constriction amplitude), spasmogen B
[13] = substance 40.00 mcg/ml, C = glucose 1.16 %, read-out: Inhibition of constriction (percentage reduction of the constriction amplitude), spasmogen C
[14] = substance 40.00 mcg/ml, D = ovalbumin 1.0 mcg/ml, read-out: Inhibition of constriction (percentage reduction of the constriction amplitude), spasmogen D
[15] = Homo sapiens, Leukocyte, conc. 90 μg/ml
[16] = substance 10.00 mcg/ml, A = histamine 1.0 mcg/ml
[17] = substance 10.00 mcg/ml, B = ovalbumin 0.1 mcg/ml
[18] = substance 10.00 mcg/ml, C = glucose 1.16 %
[19] = substance 10.00 mcg/ml, D = ovalbumin 1.0 mcg/ml
[20] = substance 40.00 mcg/ml, A = histamine 1.0 mcg/ml
[21] = substance 40.00 mcg/ml, B = ovalbumin 0.1 mcg/ml
[22] = substance 40.00 mcg/ml, C = glucose 1.16 %
[23] = substance 40.00 mcg/ml, D = ovalbumin 1.0 mcg/ml

CC1CCCCCCC(=O)/C=C\C(=O)O1 (stereo not drawn) [patulolide B] showed an inhibition at 2 µg/mL [1, 5] of 57%, an inhibition at 10 µg/mL [1, 6] of 100% and an inhibition at 10 µg/mL [2, 7] of 5%. For the same compound, the inhibition at 10 µg/mL [2, 8] was 54%, the inhibition at 10 µg/mL [2, 9] was 47% and the inhibition at 10 µg/mL [2, 10] was 51%. For the same compound, the inhibition at 40 µg/mL [2, 11] was 3%, the inhibition at 40 µg/mL [2, 12] was 95% and the inhibition at 40 µg/mL [2, 13] was 93%. The inhibition at 40 µg/mL [2, 14] was 93%, the inhibition at 2 µg/mL [3, 5] was 63% and the inhibition at 10 µg/mL [3, 6] was 99%. The plant growth inhibition (plant growth) was “plant growth inhibiting”.

CC(=O)OC1C=CC(=O)OC(C)CCCCCC1OC(C)=O (stereo not drawn) [diacetylcladospolide A, Diacetylcladospolide A] showed an inhibition at 2 µg/mL [1, 5] of 17%, an inhibition at 10 µg/mL [1, 6] of 92% and an inhibition at 40 µg/mL [2, 11] of 6%. It also gave an inhibition at 40 µg/mL [2, 12] of 44%, an inhibition at 40 µg/mL [2, 13] of 45% and an inhibition at 40 µg/mL [2, 14] of 46%. The inhibition at 2 µg/mL [3, 5] was 14% and the inhibition at 10 µg/mL [3, 6] was 96%.

In the case of C[C@H]1CCCCC[C@H](O)[C@@H](O)/C=C\C(=O)O1 [cladospolide B], the “action on the root growth of lettuce seeds” value [4] is listed as “promotingly”.

With Cn1c(=O)c2[nH]cnc2n(C)c1=O [theophylline, reference compound] the inhibition at 90 µg/mL [1, 15] was 72% and the inhibition at 90 µg/mL [3, 15] was 70%.

With C[C@@H]1CCCCC[C@H](O)[C@H](O)/C=C/C(=O)O1 [cladospolide A] the “% inhibition histamine” value ([1]; conc. 2 μg/ml) was 8%, the “% inhibition histamine” value ([1]; conc. 10 μg/ml) was 44% and the “Inhibition of constriction (percentage reduction of the constriction amplitude), spasmogen A” value [2, 16] was -5%. The “Inhibition of constriction (percentage reduction of the constriction amplitude), spasmogen B” value [2, 17] was -50%, the “Inhibition of constriction (percentage reduction of the constriction amplitude), spasmogen C” value [2, 18] was -85% and the “Inhibition of constriction (percentage reduction of the constriction amplitude), spasmogen D” value [2, 19] was -76%. The “Inhibition of constriction (percentage reduction of the constriction amplitude), spasmogen A” value [2, 20] was 16%, the “Inhibition of constriction (percentage reduction of the constriction amplitude), spasmogen B” value [2, 21] was 34% and the “Inhibition of constriction (percentage reduction of the constriction amplitude), spasmogen C” value [2, 22] was 33%. For the same compound, the “Inhibition of constriction (percentage reduction of the constriction amplitude), spasmogen D” value [2, 23] was 24%, the “action on the root growth of lettuce seeds” value [4] was “weakly inhibitingly” and the “% inhibition proteinase” value ([3]; conc. 2 μg/ml) was 5%. The “% inhibition proteinase” value ([3]; conc. 10 μg/ml) was 46%.

With C[C@@H]1CCCCCC[C@H](O)/C=C\C(=O)O1 [patulolide C] the “Inhibition of constriction (percentage reduction of the constriction amplitude), spasmogen A” value [2, 16] was -38%, the “Inhibition of constriction (percentage reduction of the constriction amplitude), spasmogen B” value [2, 17] was -35% and the “Inhibition of constriction (percentage reduction of the constriction amplitude), spasmogen C” value [2, 18] was -98%. The “Inhibition of constriction (percentage reduction of the constriction amplitude), spasmogen D” value [2, 19] was -26%, the “R = relaxation” value ([2]; substance 40.00 mcg/ml) was “R” and the “Inhibition of constriction (percentage reduction of the constriction amplitude), spasmogen A” value [2, 20] was -24%. For the same compound, the “Inhibition of constriction (percentage reduction of the constriction amplitude), spasmogen B” value [2, 21] was -40%, the “Inhibition of constriction (percentage reduction of the constriction amplitude), spasmogen C” value [2, 22] was -36% and the “Inhibition of constriction (percentage reduction of the constriction amplitude), spasmogen D” value [2, 23] was -33%. For the same compound, the plant growth inhibition (plant growth) was “plant growth inhibiting”.

For CC1CCCCCCC(=O)/C=C/C(=O)O1 (stereo not drawn) [patulolide A], the inhibition at 2 µg/mL [1, 5] was 44%, the inhibition at 10 µg/mL [1, 6] was 100% and the inhibition at 10 µg/mL [2, 7] was 23%. The inhibition at 10 µg/mL [2, 8] was 35%, the inhibition at 10 µg/mL [2, 9] was 35% and the inhibition at 10 µg/mL [2, 10] was 35%. For the same compound, the inhibition at 40 µg/mL [2, 11] was 21%, the inhibition at 40 µg/mL [2, 12] was 51% and the inhibition at 40 µg/mL [2, 13] was 53%. It also gave an inhibition at 40 µg/mL [2, 14] of 30%, an inhibition at 2 µg/mL [3, 5] of 46% and an inhibition at 10 µg/mL [3, 6] of 99%. The plant growth inhibition (plant growth) was “plant growth inhibiting”.
